From article PMC9022596, “Convergent Evolution of Antibiotic Tolerance in Patients with Persistent Methicillin-Resistant Staphylococcus aureus Bacteremia” (Infection and Immunity, 2022)

How the values were obtained:
Assay in all cases: microbe, parasite or virus in culture
Parameters in all cases: Broth microdilution MIC in cation-adjusted MHB-Ca2+, growth inhibition per EUCAST reading
[1] = test system: T1, Staphylococcus aureus PB0605; conditions: PB0605, 16 h
T1 construct: PB0605
Procedure: (§1) MICs were measured in cation-adjusted Mueller-Hinton broth (MHB) supplemented with 50 μg/mL CaCl2 (MHB-Ca^2+) via broth microdilution in 96-well plates with an inoculum of ∼5 × 10^5 CFU per mL. Antibiotic test concentrations ranged from 0.0625 μg/mL to 32 μg/mL by 2-fold dilutions. Plates were incubated at 37°C for 16 h without shaking, and results were interpreted in accordance with European Committee on Antimicrobial Susceptibility Testing reading guidelines ([72]). S. aureus ATCC 29213 was used as a quality-control strain. TCA cycle defects have been shown previously to cause antibiotic tolerance in laboratory strains of methicillin-sensitive S. aureus (MSSA) ([13], [16]). […] To test this hypothesis, we complemented three of the clinical isolates harboring loss-of-function citZ mutations with either wild-type citZ (pOS1-citZ) or empty vector (pOS1) and then measured bacterial survival through time after exposure to ceftaroline, daptomycin, vancomycin, or the combination of daptomycin plus ceftaroline (Fig. 3). These antibiotics were chosen for their clinical relevance in the treatment of severe MRSA infection.

[2] = test system: T2, Staphylococcus aureus PB0805; conditions: PB0805, 16 h
T2 construct: PB0805
Procedure: as §1

[3] = test system: T3, Staphylococcus aureus PB0704; conditions: PB0704, 16 h
T3 construct: PB0704
Procedure: as §1

[4] = test system: T4, Staphylococcus aureus PB0412; conditions: PB0412, 16 h
T4 construct: PB0412
Procedure: as §1

[5] = test system: T5, Staphylococcus aureus PB0905; conditions: PB0905, 16 h
T5 construct: PB0905
Procedure: as §1

[6] = test system: T6, Staphylococcus aureus PB0803; conditions: PB0803, 16 h
T6 construct: PB0803
Procedure: as §1

[7] = test system: T7, Staphylococcus aureus PB1408; conditions: PB1408, 16 h
T7 construct: PB1408
Procedure: as §1

[8] = test system: T8, Staphylococcus aureus PB1801; conditions: PB1801, 16 h
T8 construct: PB1801
Procedure: as §1

[9] = test system: T9, Staphylococcus aureus PB0115; conditions: PB0115, 16 h
T9 construct: PB0115
Procedure: as §1

[10] = test system: T10, Staphylococcus aureus PB0609; conditions: PB0609, 16 h
T10 construct: PB0609
Procedure: as §1

[11] = test system: T11, Staphylococcus aureus PB1407; conditions: PB1407, 16 h
T11 construct: PB1407
Procedure: as §1

Compound	MIC ([1]; replicate 1) [µg/mL]	MIC ([1]; replicate 2) [µg/mL]	MIC ([2]; replicate 1) [µg/mL]	MIC ([2]; replicate 2) [µg/mL]	MIC ([3]; replicate 1) [µg/mL]	MIC ([3]; replicate 2) [µg/mL]	MIC ([4]; replicate 1) [µg/mL]	MIC ([4]; replicate 2) [µg/mL]	MIC ([5]; replicate 1) [µg/mL]	MIC ([5]; replicate 2) [µg/mL]	MIC ([6]; replicate 1) [µg/mL]	MIC ([6]; replicate 2) [µg/mL]	MIC ([7]; replicate 1) [µg/mL]	MIC ([7]; replicate 2) [µg/mL]	MIC ([8]; replicate 1) [µg/mL]	MIC ([8]; replicate 2) [µg/mL]	MIC ([9]; replicate 1) [µg/mL]	MIC ([9]; replicate 2) [µg/mL]	MIC ([10]; replicate 1) [µg/mL]	MIC ([10]; replicate 2) [µg/mL]	other results
CCO/N=C(\C(=O)N[C@@H]1C(=O)N2C(C(=O)[O-])=C(Sc3nc(-c4cc[n+](C)cc4)cs3)CS[C@H]12)c1nsc(N)n1 [Ceftaroline]	0.25	0.25	0.5	0.5	0.25	0.25	0.5	0.5	0.5	0.5	0.5	0.5	0.5	0.5	0.5	0.5	0.5	0.5	0.25	0.25	MIC ([11]; replicate 1): 0.5 µg/mL; MIC ([11]; replicate 2): 0.5 µg/mL
CCCCCCCCCC(=O)N[C@@H](Cc1c[nH]c2ccccc12)C(=O)N[C@H](CC(N)=O)C(=O)N[C@@H](CC(=O)O)C(=O)N[C@@H]1C(=O)NCC(=O)N[C@@H](CCCN)C(=O)N[C@@H](CC(=O)O)C(=O)N[C@H](C)C(=O)N[C@@H](CC(=O)O)C(=O)NCC(=O)N[C@H](CO)C(=O)N[C@@H]([C@H](C)CC(=O)O)C(=O)N[C@@H](CC(=O)c2ccccc2N)C(=O)O[C@@H]1C [Daptomycin]	1	2	1	1	1	1	2	2	2	2	2	2	2	2	2	2	2	2	1	1	MIC ([11]; replicate 1): 2 µg/mL; MIC ([11]; replicate 2): 2 µg/mL
CC(=O)NC[C@H]1CN(c2ccc(N3CCOCC3)c(F)c2)C(=O)O1 [Linezolid]	4	4	4	4	4	4	4	4	4	4	4	4	4	4	4	4	4	4	4	4	MIC ([11]; replicate 1): 4 µg/mL; MIC ([11]; replicate 2): 4 µg/mL
CN[C@H](CC(C)C)C(=O)N[C@H]1C(=O)N[C@@H](CC(N)=O)C(=O)N[C@H]2C(=O)N[C@H]3C(=O)N[C@H](C(=O)N[C@H](C(=O)O)c4cc(O)cc(O)c4-c4cc3ccc4O)[C@H](O)c3ccc(c(Cl)c3)Oc3cc2cc(c3O[C@@H]2O[C@H](CO)[C@@H](O)[C@H](O)[C@H]2O[C@H]2C[C@](C)(N)[C@H](O)[C@H](C)O2)Oc2ccc(cc2Cl)[C@H]1O [Vancomycin]	2	2	1	1	2	2	2	2	2	2	2	2	4	4	2	2	2	2	2	4	MIC ([11]; replicate 1): 2 µg/mL; MIC ([11]; replicate 2): 2 µg/mL
